# Measured values published in PubChem BioAssay AID1963825 (Molecular Pharmacology Branch, DTP, NCI, 2024).
# Test: Anticancer human tumor 997537-175-T-J1-PDC patient-derived colon adenocarcinoma cell line growth inhibition [POLQ]
# Conditions: 997537-175-T-J1-PDC complex spheroid viability, combination with POLQ inhibitors; for IC50: curve of first compound; for viability, T/C: stronger effect = lower value
# How it was run: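 Patient-derived tumour cells were co-cultured with HUVEC and mesenchymal stem cells as multicellular spheroids at 37 °C. They were treated with POLQ inhibitors (novobiocin, ART-558, RP6685) alone or combined with other agents. Top concentrations were at or near clinical Cmax (otherwise 10 microM; SN-38 at 1 microM), decreasing in half-log steps.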
# 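Also: luminescence signal used as a surrogate for viable cells; spheroids exposed to drugs for seven days before readout.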
smiles,measurement,setting,value
CC(=O)O[C@H]1C(=O)[C@@]2(C)[C@H]([C@H](OC(=O)c3ccccc3)[C@]3(O)C[C@H](OC(=O)[C@H](O)[C@@H](NC(=O)c4ccccc4)c4ccccc4)C(C)=C1C3(C)C)[C@]1(OC(C)=O)CO[C@@H]1C[C@@H]2O + Nc1ccc(C#CCN(C(=O)Cc2ncc(C(F)(F)F)cc2C(F)(F)F)c2ccc(F)cc2)nn1,IC50,second compound 0.0316 µM,27 nM
same,IC50,second compound 0.1 µM,50.1 nM
same,IC50,second compound 0.316 µM,16.8 nM
same,IC50,second compound 1 µM,14.8 nM
same,IC50,second compound 3.16 µM,32.5 nM
same,IC50,second compound 10 µM,18.5 nM
same,"viability, T/C","second compound 0.0316 µM, first compound 0.00949 µM",50.5%
same,"viability, T/C","second compound 0.0316 µM, first compound 0.03 µM",57.6%
same,"viability, T/C","second compound 0.0316 µM, first compound 0.0949 µM",32.5%
same,"viability, T/C","second compound 0.0316 µM, first compound 0.3 µM",55.7%
same,"viability, T/C","second compound 0.0316 µM, first compound 0.949 µM",33.8%
same,"viability, T/C","second compound 0.0316 µM, first compound 3 µM",34.3%
same,"viability, T/C","second compound 0.1 µM, first compound 0.00949 µM",70%
same,"viability, T/C","second compound 0.1 µM, first compound 0.03 µM",28.4%
same,"viability, T/C","second compound 0.1 µM, first compound 0.0949 µM",58%
same,"viability, T/C","second compound 0.1 µM, first compound 0.3 µM",46.9%
same,"viability, T/C","second compound 0.1 µM, first compound 0.949 µM",23.3%
same,"viability, T/C","second compound 0.1 µM, first compound 3 µM",23.3%
same,"viability, T/C","second compound 0.316 µM, first compound 0.00949 µM",69.7%
same,"viability, T/C","second compound 0.316 µM, first compound 0.03 µM",27.3%
same,"viability, T/C","second compound 0.316 µM, first compound 0.0949 µM",27.9%
same,"viability, T/C","second compound 0.316 µM, first compound 0.3 µM",16.8%
same,"viability, T/C","second compound 0.316 µM, first compound 0.949 µM",41.3%
same,"viability, T/C","second compound 0.316 µM, first compound 3 µM",37.1%
same,"viability, T/C","second compound 1 µM, first compound 0.00949 µM",55.2%
same,"viability, T/C","second compound 1 µM, first compound 0.03 µM",44.6%
same,"viability, T/C","second compound 1 µM, first compound 0.0949 µM",31.6%
same,"viability, T/C","second compound 1 µM, first compound 0.3 µM",25.8%
same,"viability, T/C","second compound 1 µM, first compound 0.949 µM",30.1%
same,"viability, T/C","second compound 1 µM, first compound 3 µM",38.3%
same,"viability, T/C","second compound 3.16 µM, first compound 0.00949 µM",54.5%
same,"viability, T/C","second compound 3.16 µM, first compound 0.03 µM",48.2%
same,"viability, T/C","second compound 3.16 µM, first compound 0.0949 µM",44.2%
same,"viability, T/C","second compound 3.16 µM, first compound 0.3 µM",36%
same,"viability, T/C","second compound 3.16 µM, first compound 0.949 µM",24.6%
same,"viability, T/C","second compound 3.16 µM, first compound 3 µM",31%
same,"viability, T/C","second compound 10 µM, first compound 0.00949 µM",68.6%
same,"viability, T/C","second compound 10 µM, first compound 0.03 µM",35.8%
same,"viability, T/C","second compound 10 µM, first compound 0.0949 µM",37.6%
same,"viability, T/C","second compound 10 µM, first compound 0.3 µM",33.4%
same,"viability, T/C","second compound 10 µM, first compound 0.949 µM",38.5%
same,"viability, T/C","second compound 10 µM, first compound 3 µM",23.9%
